One assay has as its system MM.1S. In words: Cell viability assay, MM.1S. The format is cell-based. The settings on record: Homo sapiens, MM1.S, Multiple Myeloma. How it is done: (§1) Cells were seeded at a density of 5000 cells per well in 96-well assay plates and treated with test compounds following a 12-point 3-fold serial dilution. Three days later, cell viability was determined using the CellTiter-Glo assay kit according to the manufacturer's instructions. The dose-response curves were determined and IC50 values were calculated using the GraphPad Prism software following a nonlinear regression (least squares fit) method.
(§2) The IC50 value of each compound was determined as described in FIG. 4 and calculated using the GraphPad Prism 5.0 software.

In a further assay the test system is Karpas-422. Description: Cell viability assay, Karpas-422. The class given is cell-based. The settings on record: Homo sapiens, Karpas-422, Diffuse large B-cell lymphoma. How it is done:
as §1, §2

The subject of the next assay is HEL. Description: Cell viability assay, HEL. The format is cell-based. The following applies: Homo sapiens, Erythroleukemia. The protocol:
as §1, §2

The test system of a further assay is MM.1R. In words: Cell viability assay, MM.1R. The class given is cell-based. The settings on record: Multiple Myeloma. The protocol:
as §1, §2

The subject of the next assay is RPMI-8226. Description: Cell viability assay, RPMI-8226. The format is cell-based. The following applies: Homo sapiens, RPMI-8226, Multiple myeloma. The protocol: as §1, §2
The test system of the next assay is SU-DHL-1. Description: Cell viability assay, SU-DHL-1. The class given is cell-based. The settings on record: Homo sapiens, SU-DHL-1, Diffuse large B-cell lymphoma. How it is done: as §1, §2
The next assay concerns SK-BR-3. In words: Cell viability assay, SK-BR-3. The class given is cell-based. The settings on record: Homo sapiens, SK-BR-3, breast carcinoma. The protocol: as §1, §2
The test system of the next assay is 22Rv1. Description: Cell viability assay, 22Rv1. The class given is cell-based. The following applies: Homo sapiens, 22Rv1, Prostate carcinoma. The protocol:
as §1, §2

A further assay deals with MV4; 11. In words: Cell viability assay, MV4; 11. The format is cell-based. The following applies: Homo sapiens, 11, Acute monocytic leukemia. How it is done:
as §1, §2

The next assay relates to MEG-01. Description: Cell viability assay, MEG-01. The class given is cell-based. The settings on record: Homo sapiens, MEG-01, Chronic myeloid leukemia. How it is done: as §1, §2
For assay [1], the target named is T1, P300 (Homo sapiens, UniProt Q09472). Description: Immunoblotting of P300 protein levels in LNCaP or 22RV1 cells. The settings on record: for inhibition at 0.01 µM: percentage of inhibition of p300 at 10 nM (Table 2), read-out: Degradation (10 nM). The format is cell-based. More on the design: LNCaP or 22RV1 cells that express CBP/P300 proteins were treated with GNE-781 or the bivalent compounds; endogenous in cells; host or cells: LNCaP (clone FGC) or 22RV1 cells. An outline of the steps: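 P300/CBP levels quantified by chemiluminescent immunoblot band densitometry, normalized against tubulin or vinculin loading controls. Lysates came from LNCaP or 22RV1 cells exposed to compounds or DMSO vehicle for indicated times.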
(In general: In western blotting, separated proteins are transferred to a membrane and probed.)

The target in the next assay is T2, CBP (Homo sapiens, UniProt Q92793).
T2 construct: from tissue; host or cells: 22RV1 subcutaneous xenograft tumours in athymic nude mice
Description: Pharmacodynamic study, CBP in 22RV1 subcutaneous xenograft tumors. The class given is in vivo, Athymic nude mice. The settings on record: single dose 40 mg/kg, i.p. or p.o., six hours after administration (FIG. 9). How it is done:
(§3) In addition to cultured cells, athymic nude mice bearing 22RV1 subcutaneous xenograft tumors at the right flank were intraperitoneally or orally treated with 40 mg/kg bivalent compounds. Six hours after drug administration, animals were sacrificed for immunoblotting of P300 and CBP in homogenized xenograft tumor masses. […] Moreover, ICR mice were orally treated with 40 mg/kg bivalent compounds. Six hours after drug administration, animals were sacrificed for immunoblotting of CBP in homogenized lung tissues.
(§4) Athymic nude mice bearing 22RV1 subcutaneous xenograft tumors at the right flank were intraperitoneally or orally treated with selected bivalent compounds at 40 mg/kg. Six hours after drug administration, animals were sacrificed, and xenograft tumors were collected for immunoblotting of P300 and CBP.
(§5) All animal experiments were performed under protocols approved by the Institutional Animal Care and Use Committee (IACUC) of Cullgen. Athymic nude mice (male, 5-weeks old) received 5 million 22RV1 cells subcutaneously inoculated at the right flank site. Twenty days following inoculation, tumors were approximately 500 mm^3 in size. Tumor-bearing mice were treated intraperitoneally or via oral gavage with vehicle or bivalent compounds at indicated doses. 6 hours after drug administration, animals were sacrificed, tumors were resected. Small chunks of tumors were homogenized for immunoblotting of P300/CBP and other proteins as indicated. Alternatively, ICR mice (male, 5-weeks old) were treated via oral gavage with vehicle or bivalent compounds at indicated doses. 6 hours after drug administration, animals were sacrificed, lung tissues were resected. Small chunks of lung tissues were homogenized for immunoblotting of CBP and other proteins as indicated.

For another assay, the system named is MOLM-13. Description: Cell viability assay, MOLM-13. The class given is cell-based. The settings on record: Homo sapiens, MOLM-13, Acute monocytic leukemia. The protocol:
as §1, §2

The subject of the next assay is LK-2. Description: Cell viability assay, LK-2. The class given is cell-based. The following applies: Homo sapiens, LK-2, Non-small cell lung cancer. The protocol:
as §1, §2

The test system of a further assay is Pfeiffer. Description: Cell viability assay, Pfeiffer. The class given is cell-based. The following applies: Homo sapiens, Diffuse large B-cell lymphoma. How it is done: as §1, §2
The target in assay [2] is T1, P300. In words: Pharmacodynamic study, P300 in 22RV1 subcutaneous xenograft tumors. The format is in vivo, Athymic nude mice. More on the design: from tissue; host or cells: 22RV1 subcutaneous xenograft tumours in athymic nude mice. The following applies: single dose 40 mg/kg, i.p. or p.o., six hours after administration (FIG. 9). How it is done: as §3, §4, §5
Another assay relates to VCaP. In words: Cell viability assay, VCaP. The format is cell-based. The settings on record: Homo sapiens, Prostate carcinoma. How it is done:
as §1, §2

In a further assay the test system is NCI-H929. In words: Cell viability assay, NCI-H929. The format is cell-based. The settings on record: Homo sapiens, NCI-H929, Multiple Myeloma. How it is done:
as §1, §2

The subject of another assay is WSU-DLCL2. In words: Cell viability assay, WSU-DLCL2. The format is cell-based. The following applies: Homo sapiens, WSUDLCL2, WSU-DLCL2, Diffuse large B-cell lymphoma. How it is done:
as §1, §2

The subject of a further assay is HL-60. Description: Cell viability assay, HL-60. The following applies: Homo sapiens, HL-60, Acute myeloid leukemia. The format is cell-based. How it is done: as §1, §2

What is called IC50 is the concentration at which inhibition is half-maximal. A lower IC50 goes with inhibition by little substance.

T1 sequence (Q09472 whole entry): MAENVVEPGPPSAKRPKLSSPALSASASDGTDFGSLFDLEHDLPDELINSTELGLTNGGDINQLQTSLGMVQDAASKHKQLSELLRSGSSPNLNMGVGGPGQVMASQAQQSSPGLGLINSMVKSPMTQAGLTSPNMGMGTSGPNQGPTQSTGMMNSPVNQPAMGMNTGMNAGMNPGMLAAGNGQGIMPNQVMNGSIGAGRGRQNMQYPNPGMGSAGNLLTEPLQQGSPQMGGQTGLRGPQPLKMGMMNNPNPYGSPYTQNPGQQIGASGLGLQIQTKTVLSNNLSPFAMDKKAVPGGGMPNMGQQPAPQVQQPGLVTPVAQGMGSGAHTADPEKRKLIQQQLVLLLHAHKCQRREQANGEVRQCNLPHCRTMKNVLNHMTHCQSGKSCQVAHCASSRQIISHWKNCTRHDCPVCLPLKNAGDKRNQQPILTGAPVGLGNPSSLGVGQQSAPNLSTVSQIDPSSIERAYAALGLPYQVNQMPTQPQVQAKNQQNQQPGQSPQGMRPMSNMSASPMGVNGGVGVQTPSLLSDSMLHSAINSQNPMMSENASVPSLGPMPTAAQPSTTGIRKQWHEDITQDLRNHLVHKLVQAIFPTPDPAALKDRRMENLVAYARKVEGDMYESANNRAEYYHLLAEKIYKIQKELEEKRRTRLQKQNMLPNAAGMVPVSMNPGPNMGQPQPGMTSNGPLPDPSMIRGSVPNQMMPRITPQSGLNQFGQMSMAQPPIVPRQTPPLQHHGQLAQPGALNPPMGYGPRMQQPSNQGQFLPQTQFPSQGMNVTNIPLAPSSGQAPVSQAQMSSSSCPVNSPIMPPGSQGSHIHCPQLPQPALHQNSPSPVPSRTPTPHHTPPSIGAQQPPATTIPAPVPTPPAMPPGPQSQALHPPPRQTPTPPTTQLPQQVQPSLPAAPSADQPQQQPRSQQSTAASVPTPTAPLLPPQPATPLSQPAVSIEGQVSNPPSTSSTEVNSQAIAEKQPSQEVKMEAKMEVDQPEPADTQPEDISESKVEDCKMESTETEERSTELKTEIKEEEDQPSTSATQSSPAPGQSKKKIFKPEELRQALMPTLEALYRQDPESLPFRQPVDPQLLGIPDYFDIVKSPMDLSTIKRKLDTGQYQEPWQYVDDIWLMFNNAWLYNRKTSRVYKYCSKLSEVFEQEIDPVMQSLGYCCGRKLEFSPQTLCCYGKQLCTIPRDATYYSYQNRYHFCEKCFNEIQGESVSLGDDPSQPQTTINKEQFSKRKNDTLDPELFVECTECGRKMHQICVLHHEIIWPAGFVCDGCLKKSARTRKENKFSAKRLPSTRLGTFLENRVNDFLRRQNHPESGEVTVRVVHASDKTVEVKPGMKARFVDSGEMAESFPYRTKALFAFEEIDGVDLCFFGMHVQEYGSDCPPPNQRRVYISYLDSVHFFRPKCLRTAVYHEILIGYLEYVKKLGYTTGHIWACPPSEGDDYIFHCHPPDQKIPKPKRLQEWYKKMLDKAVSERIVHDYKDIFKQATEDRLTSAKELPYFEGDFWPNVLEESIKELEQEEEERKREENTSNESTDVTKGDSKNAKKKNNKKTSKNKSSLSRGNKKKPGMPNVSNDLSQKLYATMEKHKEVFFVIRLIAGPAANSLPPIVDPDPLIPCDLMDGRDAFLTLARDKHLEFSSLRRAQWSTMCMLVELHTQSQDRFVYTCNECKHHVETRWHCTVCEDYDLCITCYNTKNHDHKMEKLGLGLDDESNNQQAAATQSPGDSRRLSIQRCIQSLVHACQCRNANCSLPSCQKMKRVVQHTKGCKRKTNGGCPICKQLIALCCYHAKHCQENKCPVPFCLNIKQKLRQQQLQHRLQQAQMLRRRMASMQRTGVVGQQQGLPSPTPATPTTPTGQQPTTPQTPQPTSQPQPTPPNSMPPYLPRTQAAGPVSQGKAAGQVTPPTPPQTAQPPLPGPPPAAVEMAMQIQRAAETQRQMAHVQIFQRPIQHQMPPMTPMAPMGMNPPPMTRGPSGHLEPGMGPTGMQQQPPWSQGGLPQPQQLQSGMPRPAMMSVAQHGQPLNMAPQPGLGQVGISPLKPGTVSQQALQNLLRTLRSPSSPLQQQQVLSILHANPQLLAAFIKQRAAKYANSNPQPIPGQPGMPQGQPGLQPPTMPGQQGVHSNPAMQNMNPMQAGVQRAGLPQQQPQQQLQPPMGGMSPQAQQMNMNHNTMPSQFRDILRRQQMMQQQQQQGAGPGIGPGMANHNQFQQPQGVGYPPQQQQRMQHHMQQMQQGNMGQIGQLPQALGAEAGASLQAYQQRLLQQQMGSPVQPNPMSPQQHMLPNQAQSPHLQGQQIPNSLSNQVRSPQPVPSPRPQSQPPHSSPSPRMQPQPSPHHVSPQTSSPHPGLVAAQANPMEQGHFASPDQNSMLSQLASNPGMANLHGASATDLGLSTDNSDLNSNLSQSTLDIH
T2 sequence (Q92793 whole entry): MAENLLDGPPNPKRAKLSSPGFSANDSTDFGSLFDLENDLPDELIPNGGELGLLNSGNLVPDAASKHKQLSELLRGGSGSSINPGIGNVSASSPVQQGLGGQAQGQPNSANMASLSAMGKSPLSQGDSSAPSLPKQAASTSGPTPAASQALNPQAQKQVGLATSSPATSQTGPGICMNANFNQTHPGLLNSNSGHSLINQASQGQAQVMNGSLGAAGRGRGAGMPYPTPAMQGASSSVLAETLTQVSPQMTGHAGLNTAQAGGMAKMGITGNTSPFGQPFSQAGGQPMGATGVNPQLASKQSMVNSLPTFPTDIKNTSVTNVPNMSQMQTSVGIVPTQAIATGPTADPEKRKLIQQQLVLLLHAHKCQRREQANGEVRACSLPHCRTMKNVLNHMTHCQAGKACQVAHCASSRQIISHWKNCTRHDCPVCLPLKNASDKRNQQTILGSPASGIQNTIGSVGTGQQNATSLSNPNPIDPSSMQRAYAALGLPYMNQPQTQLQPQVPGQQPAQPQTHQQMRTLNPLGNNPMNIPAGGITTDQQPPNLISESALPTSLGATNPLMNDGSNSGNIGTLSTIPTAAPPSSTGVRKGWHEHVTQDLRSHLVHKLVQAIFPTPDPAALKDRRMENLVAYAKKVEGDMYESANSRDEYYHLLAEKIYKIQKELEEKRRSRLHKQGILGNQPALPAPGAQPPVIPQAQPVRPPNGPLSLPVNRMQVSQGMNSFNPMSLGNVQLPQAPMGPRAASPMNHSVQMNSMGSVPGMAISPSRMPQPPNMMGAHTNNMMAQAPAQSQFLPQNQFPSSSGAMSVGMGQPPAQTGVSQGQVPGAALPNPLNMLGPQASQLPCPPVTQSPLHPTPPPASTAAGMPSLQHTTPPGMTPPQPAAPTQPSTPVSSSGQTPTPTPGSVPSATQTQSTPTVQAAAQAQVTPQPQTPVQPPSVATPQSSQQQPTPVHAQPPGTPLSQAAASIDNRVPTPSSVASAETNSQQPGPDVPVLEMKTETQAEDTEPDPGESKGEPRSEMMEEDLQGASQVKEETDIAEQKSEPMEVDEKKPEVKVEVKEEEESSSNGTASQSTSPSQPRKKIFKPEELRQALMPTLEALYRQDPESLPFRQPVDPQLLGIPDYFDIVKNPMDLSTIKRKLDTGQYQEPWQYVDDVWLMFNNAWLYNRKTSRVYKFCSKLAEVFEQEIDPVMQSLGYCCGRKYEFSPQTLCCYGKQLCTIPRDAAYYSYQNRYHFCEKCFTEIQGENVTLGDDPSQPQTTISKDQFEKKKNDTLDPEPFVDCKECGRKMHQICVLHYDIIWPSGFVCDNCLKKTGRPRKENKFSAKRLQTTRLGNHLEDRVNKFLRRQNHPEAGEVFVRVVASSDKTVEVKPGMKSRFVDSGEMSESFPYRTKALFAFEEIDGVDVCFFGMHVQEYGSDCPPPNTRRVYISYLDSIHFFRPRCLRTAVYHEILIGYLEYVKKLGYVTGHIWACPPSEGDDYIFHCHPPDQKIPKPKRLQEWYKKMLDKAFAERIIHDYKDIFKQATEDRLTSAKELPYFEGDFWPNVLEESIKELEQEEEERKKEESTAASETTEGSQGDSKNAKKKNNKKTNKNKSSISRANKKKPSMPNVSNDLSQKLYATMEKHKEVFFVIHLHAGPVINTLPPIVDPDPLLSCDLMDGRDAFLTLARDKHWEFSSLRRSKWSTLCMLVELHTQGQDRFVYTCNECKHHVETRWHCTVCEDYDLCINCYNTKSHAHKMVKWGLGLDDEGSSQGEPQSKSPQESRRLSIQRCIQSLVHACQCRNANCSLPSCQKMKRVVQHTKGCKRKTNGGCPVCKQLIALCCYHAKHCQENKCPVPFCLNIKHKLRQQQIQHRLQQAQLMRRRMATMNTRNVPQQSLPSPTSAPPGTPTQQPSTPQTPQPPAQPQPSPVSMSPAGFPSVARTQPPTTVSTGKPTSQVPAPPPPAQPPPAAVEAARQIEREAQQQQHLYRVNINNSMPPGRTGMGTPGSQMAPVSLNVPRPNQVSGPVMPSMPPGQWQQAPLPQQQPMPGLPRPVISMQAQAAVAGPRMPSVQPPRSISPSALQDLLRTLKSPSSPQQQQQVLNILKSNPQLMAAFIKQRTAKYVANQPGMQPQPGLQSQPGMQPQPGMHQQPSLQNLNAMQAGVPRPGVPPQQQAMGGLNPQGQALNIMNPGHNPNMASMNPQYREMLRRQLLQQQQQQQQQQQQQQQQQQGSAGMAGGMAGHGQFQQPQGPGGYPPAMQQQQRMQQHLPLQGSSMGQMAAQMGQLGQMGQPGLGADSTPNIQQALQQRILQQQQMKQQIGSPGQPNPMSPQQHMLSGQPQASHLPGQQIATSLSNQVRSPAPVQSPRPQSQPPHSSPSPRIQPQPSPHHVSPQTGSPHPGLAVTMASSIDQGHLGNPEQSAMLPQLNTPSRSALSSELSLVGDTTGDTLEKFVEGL

`CNC(=O)N1CCc2c(c(N3CCCc4cc(-c5cnn(C)c5)c(C(F)F)cc43)nn2C2CCN(C(=O)CCCCCNc3cccc4c3C(=O)N(C3CCC(=O)NC3=O)C4=O)CC2)C1` (centres unmarked) [P-034, 3-(7-(difluoromethyl)-6-(1-methyl-1H-pyrazol-4-yl)-3,4-dihydroquinolin-1(2H)-yl)-1-(1-(6-((2-(2,6-dioxopiperidin-3-yl)-1,3-dioxoisoindolin-4-yl)amino)hexanoyl)piperidin-4-yl)-N-methyl-1,4,6,7-tetrahydro-5H-pyrazolo[4,3-c]pyridine-5-carboxamide]: the IC50 with MM.1S was determined as 0.2 nM; in the assay on Karpas-422, 0.9 nM; in the assay with HEL, 37.8 nM; in the assay with MM.1R it was 0.1 nM; in the assay on RPMI-8226, 9.4 nM; with SU-DHL-1 it was 0.8 nM. The IC50 in the assay on SK-BR-3 is 10.1 nM; with 22Rv1, 8.2 nM; in the assay on MV4; 11, above 10000 nM; in the assay with MEG-01, 15.3 nM; with MOLM-13, 6.9 nM; in the assay with LK-2, 7 nM. For the same compound, the IC50 with Pfeiffer was 0.7 nM; in the assay on VCaP it was 3.6 nM; in the assay on NCI-H929, 0.2 nM; with WSU-DLCL2, 0.4 nM; with HL-60 it was 2.9 nM. Moreover, the “P300 protein levels, dependence on interaction with cereblon” value at P300 [1] (LNCaP or 22RV1 cells, various concentrations (FIG. 7)) is given as “P300 degradation induced by P-034”. Also, the inhibition at 0.01 µM on P300 [1] was above 80%. The “CBP protein levels in 22RV1 xenograft tumors” value on CBP is given as “significantly reducing”. Besides, the “P300 protein levels in 22RV1 xenograft tumors” value on P300 [2] is on record as “significantly reducing”.

`CNC(=O)N1CCc2c(c(N3CCCc4cc(-c5cnn(C)c5)c(C(F)F)cc43)nn2C2CCN(C(=O)CCCCCCCNc3ccc4c(c3)C(=O)N(C3CCC(=O)NC3=O)C4=O)CC2)C1` (centres unmarked) [P-007, 3-(7-(difluoromethyl)-6-(1-methyl-1H-pyrazol-4-yl)-3,4-dihydroquinolin-1(2H)-yl)-1-(1-(8-((2-(2,6-dioxopiperidin-3-yl)-1,3-dioxoisoindolin-5-yl)amino)octanoyl)piperidin-4-yl)-N-methyl-1,4,6,7-tetrahydro-5H-pyrazolo[4,3-c]pyridine-5-carboxamide]: the IC50 in the assay on MM.1S is 0.7 nM; in the assay with Karpas-422, 6.2 nM; in the assay with HEL it was 16.1 nM; with MM.1R, 0.3 nM; with RPMI-8226, 3.7 nM; in the assay with SU-DHL-1 it was 3.4 nM. Besides, the IC50 in the assay on SK-BR-3 was found to be 5.5 nM; in the assay with 22Rv1, 3.2 nM; in the assay with MV4; 11, 8.9 nM; in the assay on MEG-01, 7.9 nM; in the assay on MOLM-13, 7.7 nM; in the assay with LK-2 it was 2.6 nM. For the same compound, the IC50 worked out at 2.1 nM with Pfeiffer; 2.1 nM in the assay on VCaP; 0.9 nM with NCI-H929; 0.4 nM with WSU-DLCL2; 17 nM in the assay on HL-60. The inhibition at 0.01 µM on P300 [1] was above 80%. In addition, the “CBP protein levels in 22RV1 xenograft tumors” value at CBP is given as “significantly reducing”. The “P300 protein levels in 22RV1 xenograft tumors” value on P300 [2] is reported as “significantly reducing”.
